From article PMC4359714 (Naunyn-Schmiedeberg's Archives of Pharmacology, 2015)

Legend:
cutaneous C fibers = assay: Skin-nerve preparation, mechanically induced firing in cutaneous C fibers; set-up: species or system mouse; details: 10 μM; sustained force 5-245 mN; compared to vehicle
Excerpt: Adult C57BL/6 mice were obtained from Jackson Laboratories and used for ex vivo skin-nerve preparations. Mice were allowed to acclimate to the animal facility at the Medical College of Wisconsin, an Association for the Assessment and Accreditation of Laboratory Animal […] (AALAC)-accredited facility, for approximately 1 week following shipment. Animals were housed with up to four other cagemates and had ad libitum access to food pellets and hyper-chlorinated water. Mice were housed on a 14:10 h light-dark cycle in cages containing aspen bedding and paper nesting material. Room temperatures averaged 21 °C. Prior to use, animals were briefly anesthetized with inhaled isoflurane and then sacrificed via cervical dislocation.
The mouse saphenous skin-nerve in vitro preparation (Koltzenburg et al. [1997]; Stucky et al. [1999]) was used for electrophysiological recordings of cutaneous terminals of primary afferent fibers in situ. […] Once a unit with a signal to noise ratio >2 was identified, the mechanical threshold was determined using calibrated von Frey filaments (range, 0.44–147.0 mN). […]
Wave forms of action potentials evoked by mechanical stimuli were saved on an oscilloscope for comparison of shape and profile. […] Action potentials were discriminated and counted off-line using a spike histogram software extension. […] All data was also analyzed in a blinded manner.

[1] = Pharmacokinetics in plasma and brain, male Sprague-Dawley rats; type: in vivo; details: male Sprague-Dawley rat
Experimental: Plasma pharmacokinetics of each compound in male Sprague-Dawley rats (n = 3 animals per study) were determined after intravenous dosing at 2 mg/kg in 100 % dimethylsulfoxide (DMSO) or after administration of 5 mg/kg by oral gavage with test article formulated in 5 % Tween 80 in OraPlus®. At designated time points, blood was collected via the femoral artery and processed for plasma by centrifugation. Plasma was then transferred into a 96-well container and stored in a freezer maintained at −70 °C. Similar bioanalytical methods were used to determine plasma and brain exposure in animals tested in pharmacodynamic and pain models. Brain samples were homogenized with a 4:1 ratio of water (mL) for every gram of brain tissue. […] Calibration standards were prepared from a 1 mg/mL stock solution of each compound in DMSO with a serial dilution into a blank matrix (plasma or brain homogenate). Liquid chromatography with tandem mass spectrometry was used for the quantitation of each compound in rat plasma and brain. Non-compartmental pharmacokinetic analysis of plasma concentrations was conducted using WinNonlin Enterprise v.5.1.1 (Pharsight Corporation, Mountain View, CA). Brain uptake was calculated as a ratio of concentration in whole brain tissue to that in plasma taken from the same animal at approximately the same time.

rat TRPV1 = molecular target: T1, rat TRPV1 (Rattus norvegicus, UniProt O35433); assay: Luminescence (aequorin) readout of intracellular calcium, CHO cells expressing rat TRPV1, capsaicin activation; type: cell-based; details: 0.5 uM capsaicin, read-out: rTRPV1 IC50
T1 construct: expressed in transfected cells; host or cells: CHO, constitutive expression, co-transfected with aequorin
T1 sequence (O35433 whole entry): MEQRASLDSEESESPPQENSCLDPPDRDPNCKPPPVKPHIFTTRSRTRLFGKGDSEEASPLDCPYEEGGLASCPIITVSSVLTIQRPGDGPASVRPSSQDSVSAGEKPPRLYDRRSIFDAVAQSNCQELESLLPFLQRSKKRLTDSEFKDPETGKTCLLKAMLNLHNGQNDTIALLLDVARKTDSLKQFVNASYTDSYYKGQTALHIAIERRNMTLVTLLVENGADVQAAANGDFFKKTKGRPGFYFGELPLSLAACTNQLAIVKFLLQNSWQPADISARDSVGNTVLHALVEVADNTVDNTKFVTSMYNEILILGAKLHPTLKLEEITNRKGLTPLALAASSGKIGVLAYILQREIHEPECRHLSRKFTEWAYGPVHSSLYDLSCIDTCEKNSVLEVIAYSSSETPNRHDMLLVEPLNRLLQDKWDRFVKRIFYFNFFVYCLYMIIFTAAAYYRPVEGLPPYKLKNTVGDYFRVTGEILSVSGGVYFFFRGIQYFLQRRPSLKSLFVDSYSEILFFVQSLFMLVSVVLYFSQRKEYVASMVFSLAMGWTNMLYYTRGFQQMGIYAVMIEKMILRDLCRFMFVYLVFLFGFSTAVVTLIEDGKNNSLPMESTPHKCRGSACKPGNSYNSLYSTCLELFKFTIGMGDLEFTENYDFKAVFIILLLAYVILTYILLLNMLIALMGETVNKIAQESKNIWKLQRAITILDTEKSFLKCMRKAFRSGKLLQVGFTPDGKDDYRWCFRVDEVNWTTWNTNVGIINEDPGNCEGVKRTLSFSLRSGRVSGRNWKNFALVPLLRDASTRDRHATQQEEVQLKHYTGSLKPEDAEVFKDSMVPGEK
Excerpt: Stable Chinese hamster ovary (CHO) cell lines expressing rat TRPA1, rat TRPM8, rat TRPV3, and human TRPV4 were generated using the tetracycline-inducible T-REx™ expression system from Invitrogen (Carlsbad, CA) and a stable CHO cell line expressing rat TRPV1 was generated using a constitutive expression system (Klionsky et al. [2007]). To enable a luminescence readout based on intracellular increase in calcium (Le Poul et al. [2002]), each cell line was also co-transfected with pcDNA3.1 plasmid containing jelly fish aequorin cDNA. Twenty-four hours before the assay, cells were seeded in 96-well plates and all TRP channel expression, except for TRPV1, was induced with 0.5 ug/mL tetracycline. […] Luminescence was measured by a CCD camera-based FLASH-luminometer built by Amgen, Inc. The following agonists were used to activate TRP channels: 0.5 uM capsaicin for TRPV1, 80 uM allyl isothiocyanate (AITC) for TRPA1, 1 uM icilin or cold buffer (12 °C) for TRPM8, 200 uM aminoethoxydiphenyl borate (2-APB) for TRPV3, and 1 uM 4α-phorbol 12,13-didecanoate (4α-PDD) for TRPV4. Antagonist IC50 values were calculated using GraphPad Prism 4.01 (GraphPad Software Inc, San Diego, CA).

- Oral bioavailability ([1]; 5 mg/kg oral gavage): 47%
- clearance ([1]; plasma, iv, i.v. 2 mg/kg): 7.83 mL/min/kg
- bioavailability ([1]; plasma, 5 mg/kg oral gavage): > 40%
- IC50 (rat TRPV1): > 25 µM
Compound: C[C@H](NC(=O)N1CCc2cccnc2[C@H]1c1ccc(C(F)(F)F)cc1)C(F)(F)F [AMG2850, (R)-8-(4-(trifluoromethyl)phenyl)-N-((S)-1,1,1-trifluoropropan-2-yl)-5,6-dihydro-1,7-naphthyridine-7(8H)-carboxamide]
- effect on mechanical firing in C fibers (cutaneous C fibers): no significant effect
